The record followed here is patent US12558337B2, “Formulations comprising melflufen” (ON[…], priority 2019, dated 2026).

Counter-ions that a name gives are not always drawn.

The data set is described as follows: Stability of liquid formulations containing a melflufen salt and propylene glycol at room temperature (HPLC-MS). It counts as physicochemical. Particulars: for Purity of melfufen in the liquid formulation containing a melfufen salt and propylene glycol at RT: 20 mg/mL in propylene glycol, RT (20-25° C.); for stability on storage: in propylene glycol, room temperature (RT), over 7 weeks. The method, then:
The solubility and stability of ethanesulfonic acid, p-toluenesulfonic acid and hydrochloric acid salts of melflufen in propylene glycol were investigated. 10 mg of each melflufen salt was transferred to transparent 4 mL vials and propylene glycol (Merck Lot # K51750378936, 1.07478.2500) was added to a concentration of 20 mg/mL. The vials were shaken for a short time and stored at room temperature (RT, 20-25° C.).
The stability of the melflufen salt solutions were analysed at weekly time points by Analytical HPLC-MS using an Agilent 1100 series Liquid Chromatograph/Mass Selective Detector (MSD) (Single Quadrupole) equipped with an electrospray interface and a UV diode array detector. Analysis was performed by using an ACE 3 C8 (3.0×50 mm) column with a gradient of 10-97% acetonitrile in 0.1% aqueous TFA over 3 min and a flow of 1 mL/min. UV was monitored at 305 nm. At each time point (0, 1, 2, 3, 4, 5, 6 and 7 weeks) 10 μL of the melflufen solution was diluted with 490 μL of acetonitrile before HPLC-MS analysis.

For the compound `CCOC(=O)[C@H](Cc1ccc(F)cc1)NC(=O)[C@@H](N)Cc1ccc(N(CCCl)CCCl)cc1.Cc1ccc(S(=O)(=O)O)cc1` [melflufen p-toluenesulfonic acid salt, Ethyl (2S)-2-[[(2S)-2-amino-3-[4-[bis(2-chloroethyl)amino]phenyl]propanoyl]amino]-3-(4-fluorophenyl)propanoate;4-methylbenzenesulfonic acid], the stability on storage entry is listed as “good stability”. Besides, under “0 weeks”, the “Purity of melfufen in the liquid formulation containing a melfufen salt and propylene glycol at RT” value (“Purity of melfufen” for short) worked out at 100 % relative peak area. Besides, the “Purity of melfufen” value (1 week) was 96 % relative peak area. Besides, under “2 weeks”, the “Purity of melfufen” value came to 95 % relative peak area. The “Purity of melfufen” value (3 weeks) amounted to 93 % relative peak area. Moreover, the “Purity of melfufen” value (4 weeks) came out at 91 % relative peak area. Further, the “Purity of melfufen” value (5 weeks) was found to be 89 % relative peak area. Besides, the “Purity of melfufen” value (6 weeks) came to 88 % relative peak area. Besides, the “Purity of melfufen” value (7 weeks) was 87 % relative peak area.

In the case of `CCOC(=O)[C@H](Cc1ccc(F)cc1)NC(=O)[C@@H](N)Cc1ccc(N(CCCl)CCCl)cc1` [melflufen hydrochloric acid salt, L-Melphalanyl-4-fluoro-L-phenylalanine ethyl ester, reference compound], the stability on storage entry is listed as “good stability”. Also, the “Purity of melfufen” value (0 weeks) came to 100 % relative peak area. The “Purity of melfufen” value (1 week) is reported as 100 % relative peak area. Moreover, under “2 weeks”, the “Purity of melfufen” value worked out at 95 % relative peak area. For the setting “3 weeks”, the “Purity of melfufen” value came to 94 % relative peak area. For the same compound, the “Purity of melfufen” value (4 weeks) is listed as 92 % relative peak area. For the same compound, the “Purity of melfufen” value (5 weeks) is given as 89 % relative peak area. Moreover, where the note is “6 weeks”, the “Purity of melfufen” value is reported as 87 % relative peak area. In addition, where the note is “7 weeks”, the “Purity of melfufen” value worked out at 85 % relative peak area.

For the compound `CCOC(=O)[C@H](Cc1ccc(F)cc1)NC(=O)[C@@H](N)Cc1ccc(N(CCCl)CCCl)cc1.CCS(=O)(=O)O` [melflufen ethanesulfonic acid salt, ethanesulfonic acid;ethyl (2S)-2-[[(2S)-2-amino-3-[4-[bis(2-chloroethyl)amino]phenyl]propanoyl]amino]-3-(4-fluorophenyl)propanoate], the stability on storage entry is on record as “good stability”. The “Purity of melfufen” value (0 weeks) was 100 % relative peak area. The “Purity of melfufen” value (1 week) came to 95 % relative peak area. Also, the “Purity of melfufen” value (2 weeks) is 94 % relative peak area. In addition, the “Purity of melfufen” value (3 weeks) was found to be 93 % relative peak area. The “Purity of melfufen” value (4 weeks) came out at 94 % relative peak area. Moreover, where the note is “5 weeks”, the “Purity of melfufen” value worked out at 89 % relative peak area. Also, under “6 weeks”, the “Purity of melfufen” value came to 88 % relative peak area. Also, where the note is “7 weeks”, the “Purity of melfufen” value came to 87 % relative peak area.
